Assay results taken from PubChem BioAssay (NCI).
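Each compound was tested at five concentrations against cells in 96-well plates for 48 hours. The concentration for 50% growth inhibition is given as GI50. Definition used: TGI = concentration required for complete inhibition of growth.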

Assays:
Assay in all cases: NCI tumour cell line growth inhibition, 48 h
COLO 205 colon = test system: COLO 205 colon
DU-145 prostate = test system: DU-145 prostate
HCT-116 colon = test system: HCT-116 colon
LOX IMVI melanoma = test system: LOX IMVI melanoma
NCI-H23 lung = test system: NCI-H23 lung
OVCAR-5 ovarian = test system: OVCAR-5 ovarian
RPMI-8226 leukemia = test system: RPMI-8226 leukemia
SN12C renal = test system: SN12C renal
UACC-257 melanoma = test system: UACC-257 melanoma
BT-549 breast = test system: BT-549 breast

| Compound | GI50 (COLO 205 colon) [µM] | TGI (COLO 205 colon) [µM] | GI50 (DU-145 prostate) [µM] | TGI (DU-145 prostate) [µM] | GI50 (HCT-116 colon) [µM] | TGI (HCT-116 colon) [µM] | GI50 (LOX IMVI melanoma) [µM] | TGI (LOX IMVI melanoma) [µM] | GI50 (NCI-H23 lung) [µM] | TGI (NCI-H23 lung) [µM] | GI50 (OVCAR-5 ovarian) [µM] | TGI (OVCAR-5 ovarian) [µM] | GI50 (RPMI-8226 leukemia) [µM] | TGI (RPMI-8226 leukemia) [µM] | GI50 (SN12C renal) [µM] | TGI (SN12C renal) [µM] | GI50 (UACC-257 melanoma) [µM] | TGI (UACC-257 melanoma) [µM] | GI50 (BT-549 breast) [µM] | TGI (BT-549 breast) [µM] |
| --- | --- | --- | --- | --- | --- | --- | --- | --- | --- | --- | --- | --- | --- | --- | --- | --- | --- | --- | --- | --- |
| c1ccc(CN=C(NCc2ccccc2)NCc2ccccc2)cc1 | 1.98 | 4.03 | 5.38 | 19.4 | 3.97 | 17.3 | 5.52 | 19.3 | 4.66 | 17.8 | 10.1 | 24.5 | 4.7 | 24.4 | 6.92 | 24.1 | 3.23 | 11.1 |  |  |
| COc1cccc2c1c(C1=C(c3cn(C)c4ccccc34)C(=O)NC1=O)cn2C | > 25 | > 25 | > 25 | > 25 | > 25 | > 25 | > 25 | > 25 | > 25 | > 25 | > 25 | > 25 | > 25 | > 25 | > 25 | > 25 | > 25 | > 25 | > 25 | > 25 |
| O=C(NO)c1ccc(Cn2c(=O)n(-c3ccccc3F)c(=O)c3ccccc32)cc1 | 1.39 | 3.76 | 2.09 | > 100 | 1.14 | 3.19 | 1.71 | 3.2 |  |  | 1.45 | 7 | 1.19 | 18.9 |  |  | 1.25 | 3.22 | 1.9 | 4.13 |
| O=C1OC(c2ccccc2)(c2cc(Br)c(O)c(Br)c2)c2ccccc21 (stereo unspecified) | 18.2 | 39.4 | 27.4 | > 100 | 15.6 | 29.1 | 16.3 | 33 | 21.3 | 59.1 | 31.8 | > 100 | 28.7 | 78.5 | 50 | > 100 | 35.4 | > 100 |  |  |
| S=c1nc(Cl)cc2[nH]c(Cl)cn12 |  | 8.08 |  | > 100 |  | 16.6 |  | > 100 |  | 48.8 |  |  |  | 43.3 |  | > 100 |  | > 100 |  | > 100 |
| CC(=O)C1(N=Nc2ccc(S(N)(=O)=O)cc2)CCOC1=O (stereo unspecified) |  | > 100 |  | > 100 |  | > 100 |  | > 100 |  | > 100 |  | > 100 |  |  |  | > 100 |  | > 100 |  | > 100 |
| C=CN(C)S(C)(=O)=O | > 100 | > 100 | > 100 | > 100 | > 100 | > 100 | > 100 | > 100 |  |  | > 100 | > 100 | > 100 | > 100 | > 100 | > 100 | > 100 | > 100 | > 100 | > 100 |
| OCC1OC(n2cnc3c(Cl)nc(Cl)cc32)C(O)C1O (stereo unspecified) | > 100 | > 100 | > 100 | > 100 | > 100 | > 100 |  |  | > 100 | > 100 | > 100 | > 100 | > 100 | > 100 | > 100 | > 100 |  |  | > 100 | > 100 |
| CN(C)CCCNC(=O)c1cncnc1Nc1ccc(OCc2cccc(F)c2)c(Cl)c1 | 1.79 | 3.57 | 1.76 | 3.2 | 1.47 | 2.79 | 1.44 | 2.81 | 1.74 | 3.28 | 1.67 | 3.07 |  |  | 1.67 | 3.14 | 1.89 | 3.83 | 1.59 | 3.06 |
| CCCCN(CCCC)CCCn1c(=O)c2c3ccccc3n(C)c2n2nnc(-c3ccccc3)c12 | 5.01 | 62.9 | 47.6 | > 100 | 18.4 | > 100 | 28.4 | > 100 | 13 | 62.6 | 22.3 | > 100 | 6 | 49.4 | 19.4 | 94.8 | 28.7 | 82.5 |  |  |
| COc1cc(OC)c(NC(=O)c2cc3ccccc3cc2O)cc1Cl | 3.91 | 14.5 | 3.72 | 38.2 | 2.91 | 10.1 | 2.69 | 9.37 | 2.38 | 7.61 | 4.7 | 34.5 | 2.82 | 10.9 | 2.26 | 7.67 |  |  | 4.33 | 66 |
| Cc1ccc(-c2nc(N3CCCNCC3)c3oc(-c4ccccc4)nc3n2)cc1 | 1.89 | 3.5 | 1.89 | 3.4 |  |  | 1.71 | 3.2 | 1.95 | 3.71 | 1.9 | 3.38 |  |  | 1.69 | 3.21 | 1.96 | 3.48 |  |  |
| CC(=O)[C@@]1(O)[C@H](C)C[C@H]2[C@@H]3C=C(C)C4=Cc5c(cnn5-c5ccccc5)C[C@]4(C)[C@H]3[C@@H](O)C[C@@]21C | 1.86 | 3.93 | 3.24 | 14 | 2.46 | 11.4 | 1.69 | 4.6 | 2.48 | 9.96 | 1.52 | 5.76 |  |  | 1.4 | 12.4 | 4.06 | 13.4 | 1.29 | 5.17 |
| Cc1cn2c(/C=N/N=C(N)N)c(-c3cccnc3)nc2s1 | 11.6 | 27.5 |  |  | 8.62 | 37.8 | 12.9 | 28.7 | 11.9 | 25.2 | 15.2 | 28.5 | 8.91 | 58.9 |  |  | 16.5 | 35.4 | 12.8 | 30.9 |
